Entries after “also recorded” stand apart in the source; their conditions may differ.
How the values were obtained:
[1] = tested on: congestive heart failure subsequent to myocardial infarction; experiment: Rat CHF subsequent to myocardial infarction, daily dosing (Example 4); type: in vivo
Description: A similar experiment was carried out in which rats were dosed more frequently with a lower dose. Animals were dosed orally every day with vehicle, 2 mg/kg, 6 mg/kg or 20 mg/kg compound from day 2 to day 26 post MI. […] The effect of the compound of Formula I on cardiac function in congestive heart failure (CHF) was studied by inducing CHF subsequent to myocardial infarction (MI). Four groups of rats (n=12) were subjected to MI by 30 minute ligation of the left coronary artery followed by reperfusion. In a sham group, rats underwent a similar surgical procedure except that the left coronary artery was not occluded. Treatment with the compound of Formula I was initiated 2 days after reperfusion. In the MI groups, rats were dosed orally daily with vehicle, 2 mg/kg, 6 mg/kg or 20 mg/kg compound from day 2 to day 26 post MI. In the sham group, rats were dosed with vehicle on the same schedule. At 28 days post-MI, cardiac function, heart weight, and complete blood count (CBC) were measured. • Male Sprague Dawley rats • Ligation of left coronary artery for 30 minutes followed by reperfusion • Post-ligation recovery for 28 days • Cardiac function 28 days after ischemia-reperfusion using a Millar pressure-volume catheter inserted in the left ventricle via the carotid artery • Record pressure-volume loops over several cardiac cycles and derived cardiac function parameters

[2] = PK profile in rats; type: in vivo, rat
[3] = tested on: coronary artery (isolated heart preparation); experiment: Coronary artery vasodilation in an isolated heart preparation
[4] = tested on: myocardial ischemia-induced heart failure (HFrEF); experiment: Rat model of ischemic HFrEF, Formula I and empagliflozin alone and in combination; type: in vivo
Description: (§1) • Male Sprague Dawley rats • Ligation of left coronary artery for 30 minutes followed by reperfusion • Post-ligation recovery for 28 days • Cardiac function 28 days after ischemia-reperfusion using a Millar pressure-volume catheter inserted in the left ventricle via the carotid artery • Record pressure-volume loops over several cardiac cycles and derived cardiac function parameters A) Rat Model of Ischemic Heart Failure with Reduced Ejection Fraction (HFrEF)

[5] = tested on: congestive heart failure subsequent to myocardial infarction; experiment: Acute myocardial ischemia induced HF, duration of administration (regimens); type: in vivo, rat
[6] = tested on: acute myocardial ischemia; experiment: Acute cardioprotection: infarct size post-acute myocardial ischemia; type: in vivo
[7] = tested on: congestive heart failure following myocardial ischemia; experiment: Acute myocardial ischemia induced HF, dose response / MED; type: in vivo, rat
Description: as §1, with “Dose response with the compound” for “A) Rat Model”, “Formula I on cardiac function in congestive heart failure (CHF) was studied by inducing CHF following myocardial ischemia for the determination of Minimum Effective Dose (MED) 2 mg/kg, as shown in FIGS. 10A and 10B.” for “Ischemic Heart Failure with Reduced Ejection Fraction (HFrEF)”

[8] = tested on: permanent myocardial ischemia induced HF; experiment: Permanent myocardial ischemia induced HF; type: in vivo, rat; conditions: 6, 20 mg/kg daily, 4 weeks; at both doses
[9] = PK profile in monkeys; type: in vivo, monkey; conditions: for bioavailability: po
[10] = tested on: diastolic dysfunction HF in obese ZSF1 rats; experiment: ZSF1 model of heart failure with preserved ejection fraction (HFpEF), monotherapy; type: in vivo, rat
Source text: This study determined the effects of the compound of Formula I on cardiac function after 16 weeks of treatment in male obese ZSF1 rats.
Lean ZSF1 rats were used as controls.
The obese ZSF1 rat was developed by crossing diabetic Zucker fatty rats with spontaneously hypertensive heart failure (SHHF) rats
• Hypertension • Impaired renal function • Obesity • Type 2 diabetes • Insulin resistance, hyperinsulinemia • Hypertriglyceridemia, • Hypercholesterolemia

[11] = 2, 6 or 20 mg/kg oral daily day 2-26 post MI, 28 days post-MI
[12] = 2, 6 or 20 mg/kg oral daily day 2-26 post MI, 28 days post-MI, vs vehicle
[13] = 20 mg/kg daily for 7, 14 or 28 days
[14] = 0.2, 0.6, 2 mg/kg daily, 4 weeks, effect at 2 mg/kg
[15] = both sexes, monkey, in vivo, oral, monkeys, males and females
[16] = both sexes, monkey, in vivo, monkeys, males and females
[17] = in vivo, monkey, PK summary table

For CC(C)(CC(=O)O)NC(=O)c1nc(C#N)c2cc(Oc3ccccc3)ccc2c1O [Formula I, 3-[(1-cyano-4-hydroxy-7-phenoxy-isoquinoline-3-carbonyl)-amino]-3-methyl-butyric acid], the collagen deposition ([1]; 2, 6, 20 mg/kg daily, 4 weeks) was “Significant reduction in cardiac”, the diastolic function ([1]; 2, 6, 20 mg/kg daily, 4 weeks) was “deposition, improvement in systolic” and the systolic function ([1]; 2, 6, 20 mg/kg daily, 4 weeks) was “deposition, improvement in systolic”. For the same molecule, the circulating hemoglobin level [1, 11] was “did not produce a concomitant significant increase; also recorded: without any concomitant rise”, the “other CBC parameters” value [1, 11] was “did not produce a concomitant significant increase in circulating hemoglobin level or have a significant effect” and the arterial elastance [1, 12] was “significantly improved”. For the same molecule, the cardiac hypertrophy [1, 12] was “significantly improved; also recorded: significant improvement; also recorded: Significant reduction in cardiac”, the cardiac output [1, 12] was “significantly improved; also recorded: significant improvement” and the dPdtmax [1, 12] was “significantly improved”. For the same molecule, the ejection fraction [1, 12] was “significantly improved; also recorded: significant improvement; also recorded: fraction improved at all doses)”, the end systolic volume [1, 12] was “significantly improved; also recorded: significant improvement” and the end-diastolic pressure [1, 12] was “significantly improved”. For the same molecule, the relaxation time [1, 12] was “significantly improved; also recorded: significant improvement”, the stroke volume [1, 12] was “significantly improved; also recorded: significant improvement” and the stroke work [1, 12] was “significantly improved; also recorded: significant improvement”. For the same molecule, the “effectiveness of a lower dose at more frequent intervals vs a higher dose at less frequent intervals” value ([1]; daily 2, 6, 20 mg/kg vs every other day dosing) was “equally effective”, the cardiac contractility ([1]; daily for 28 days) was “significant improvement” and the Tmax ([2]; in vivo, oral, rat, PK summary table) was 5 to 6 h. For the same molecule, the “Sex difference in PK” value ([2]; rat) was “No”, the “Accumulation (after multiple dosing)” value ([2]; rat, 4 wk GLP TK) was “Yes (4 wk” and the Dose proportional ([2]; rat, 10-150 mg/kg) was “Yes”. It also gave a clearance ([2]; rat, in vivo, PK summary table) of 0.367 to 0.667 mL/min/kg, a half-life ([2]; rat, in vivo, PK summary table, mostly) of 5 to 6 h and a half-life ([2]; rat, in vivo, PK summary table, some longer) of 10 to 15 h. The bioavailability ([2]; rat, in vivo, po, rats, read-out: Oral bioavailability (Oral % F)) was roughly 78%, the AUC(0-inf) ([2]; rat, in vivo, rats) was 1080 ± 328 µg·h/mL and the AUC(0-t) ([2]; rat, in vivo, rats) was 1010 ± 268 µg·h/mL. It also gave a Cmax ([2]; rat, in vivo, rats) of 91 ± 12 µg/mL, a Tmax ([2]; rat, in vivo, rats) of 6.7 ± 1.2 h and a clearance ([2]; rat, in vivo, rats) of 0.367 mL/min/kg. For the same molecule, the half-life ([2]; rat, in vivo, rats) was 5 ± 1.3 h, the Vd ([2]; rat, in vivo, rats, read-out: Vss) was 0.123 ± 0.056 L/kg and the “Accumulation (after multiple dosing)” value ([2]; rat, once daily dosing 2 weeks) was “Unclear”. For the same molecule, the “CL relative to hepatic blood flow rate” value ([2]; rats) was “lower than hepatic blow flow rate”, the “Vss relative to plasma volume” value ([2]; rats) was “higher than plasma volume” and the “coronary artery vasodilation (coronary perfusion pressure, coronary resistance)” value [3] was “induced”. For the same molecule, the “improvement in ejection fraction” value [4] was roughly 30%, the “improvement in end systolic volume” value [4] was roughly 30% and the collagen deposition [5, 13] was “All regimens reduced collagen”. The diastolic function [5, 13] was 14 and 28 days regimens improved, the systolic function [5, 13] was 14 and 28 days regimens improved and the cardiac hypertrophy ([5]; 20 mg/kg daily, 14 and 28 days regimens) was “reduced cardiac hypertrophy”. The infarct size [6] was “reduced; also recorded: dose-dependent reducing affect”, the cardiac hypertrophy [7, 14] was “Significant reduction in cardiac” and the diastolic function [7, 14] was “hypertrophy and improved systolic”. The systolic function [7, 14] was “hypertrophy and improved systolic”, the “Minimum Effective Dose (MED)” value ([7]; cardiac function in CHF following myocardial ischemia) was 2 mg/kg and the cardiac hypertrophy [8] was “Non-significant reduction in cardiac”. For the same molecule, the collagen deposition [8] was “Non-significant reduction in cardiac”, the Cmax [9, 15] was 10.9 ± 3.7 µg/mL and the Tmax [9, 15] was 2.6 ± 1.6 h. It also gave an AUC(0-inf) [9, 16] of 180 ± 68 µg·h/mL, an AUC(0-t) [9, 16] of 176 ± 67 µg·h/mL and a clearance [9, 16] of 0.433 mL/min/kg. For the same molecule, the half-life [9, 16] was 34.6 ± 9.5 h, the Vd ([9]; both sexes, monkey, in vivo, monkeys, males and females, read-out: Vss) was 0.184 ± 0.028 L/kg and the Tmax ([9]; in vivo, oral, monkey, PK summary table) was roughly 1 h. The clearance [9, 17] was 0.517 to 0.667 mL/min/kg, the half-life [9, 17] was 22 to 36 h and the “Systemic clearance compared with other species” value ([9]; monkey vs rats (slower than CL in dogs)) was “comparable to those in rats”. The Dose proportional ([9]; monkey, 10-60 mg/kg) was “Yes”, the “Accumulation (after multiple dosing)” value ([9]; monkey, daily dosing, compared to Day 1 exposure) was 2-3 fold higher and the bioavailability ([9]; monkey, in vivo, monkeys, read-out: Oral bioavailability (Oral % F)) was 36 to 48%. For the same molecule, the bioavailability ([9]; monkey, in vivo, monkeys, read-out: Oral bioavailability, group mean) was 42 to 47%, the Dose proportional ([9]; monkey, up to 150 mg/kg) was “less than dose” and the “Dose proportionality of compound exposure” value ([9]; monkeys) was “increased dose proportionally”. For the same molecule, the “Vss relative to plasma volume” value ([9]; monkeys) was “higher than plasma volume”, the “Sex difference in PK” value ([9]; monkeys, compound exposure or key PK parameters) was “no marked sex difference and No” and the hypertension ([10]; 20 mg/kg QOD, 16 weeks) was “Significant stabilization of”. The diastolic function ([10]; 20 mg/kg QOD, 16 weeks, end-diastolic pressure, left atrium weight, relaxation time, dp/dt minimum) was “improved; also recorded: Significant improvement in” and the “blood pressure (mean, diastolic, systolic)” value ([10]; monotherapy) was “normalized”.
